Results published in patent US10307383B2, “Cosmetic composition for preventing or ameliorating hypersensitive skin comprising cedrol or derivatives thereof, or pharmaceutically acceptable salts thereof” (University of Seoul Industry Cooperation Foundation, priority 2017, dated 2019).
Values after ≈ are worked out from the molar mass of the structure shown.

Columns and labels:
[1] = test system: psoriasis induced mice (imiquimod); assay: Ear thickness reduction effect in the psoriasis induced mice (PASI); type: in vivo, Balb/c mouse; conditions: for mean ear thickness point (PASI): day 7, 100 mg/kg oral once a day, IMQ applied, IMQ alone 3.5
Procedure: (§1) To investigate the delayed effect of cedrol, cedryl acetate, and alpha-cedrene on the development of psoriasis, total 5 groups of mice were prepared (8 mice/group). First, the hair of the entire back of the 8-week-old male Balb/c mouse whose immune system was weakened was removed by using a hair clipper (Kimlaube Hair pen 325,327, Rikei, Korea). In the middle of the shaved back of the mouse, 2 mg of imiquimod (3M Health Care Limited, England) was applied in the area of 2 cm×1.5 cm and also 1,125 mg of imiquimod was applied on the right ear of the mouse every day once a day to induce psoriasis.
(§2) The mice prepared above were divided into the distilled water treated group (IMQ), the cedrol treated group (C), the cedryl acetate treated group (CA), and the alpha-cedrene treated group (CE). At this time, the mice were orally treated with distilled water at the concentration of 200 μl/mouse and cedrol or its derivatives at the concentration of 200 μl/mouse (100 mg/kg). The day when distilled water or the compound administration started was recorded as day 0 and the administration was performed once a day for a week, during which photo-recording was performed every day (FIGS. 2A˜2D). In the meantime, instead of applying imiquimod, 40 mg of vaseline was applied on the back of the control group (CONT) and 22.5 mg of vaseline was applied on the right ear of the control group. And the control group was orally administered with distilled water (200 μl/mouse).
Then, the psoriasis area severity index (PASI) was calculated with the range of 1˜4 to confirm the reduction effect of the compounds on the ear thickness.

[2] = test system: psoriasis induced mice (imiquimod); assay: Keratosis reduction effect in the psoriasis induced mice (PASI); type: in vivo, Balb/c mouse; conditions: day 7, 100 mg/kg oral once a day, IMQ applied; IMQ alone 3.8
Procedure: as §1, §2
Then, the psoriasis area severity index (PASI) was calculated to confirm the reduction effect of the compounds on keratosis. Keratosis is a symptom of psoriasis. The application of IMQ can induce keratosis.

[3] = test system: psoriasis induced mice (imiquimod); assay: Skin flair reduction effect in the psoriasis induced mice (PASI); type: in vivo, Balb/c mouse; conditions: day 7, 100 mg/kg oral once a day, IMQ applied; IMQ alone 4.00
Procedure: as §1, §2
Then, the psoriasis area severity index (PASI) was calculated to confirm the reduction effect of the compounds on skin flair. Skin flair is a symptom of psoriasis. The application of IMQ can induce skin flair.

[4] = test system: psoriasis induced mice (imiquimod); assay: Skin pain reduction effect in the psoriasis induced mice (back pinch, mice counted); type: in vivo, Balb/c mouse; conditions: IMQ applied, 8 mice/group
Procedure: as §1, §2
When the back of the psoriasis induced mice orally administered with cedrol, cedryl acetate, and alpha-cedrene of Example <2-1> was pinched, those mice who sound painfully with strong rejection were counted. Skin pain is a symptom of psoriasis, and when IMQ is applied, skin pain becomes stronger as time goes by.

[5] = test system: psoriasis induced mice (imiquimod); assay: Skin wrinkle reduction effect in the psoriasis induced mice; type: in vivo, Balb/c mouse; conditions: IMQ applied, 8 mice/group
Procedure: as §1, §2
The psoriasis induced mice orally administered with cedrol, cedryl acetate, and alpha-cedrene of Example <2-1> were observed by the naked eye, and the number of mice showing skin wrinkles was counted. Skin wrinkle is a symptom of psoriasis, and when IMQ is applied, skin keratinization increases and accordingly skin wrinkles are formed as time goes by.

[6] = test system: psoriasis induced mice (imiquimod); assay: Recovery effect on ear thickness of the psoriasis induced mice after termination of imiquimod (PASI); type: in vivo, Balb/c mouse
Procedure: (§3) Imiquimod was applied to the psoriasis induced mice which had developed psoriasis for a week in Example <2-1>. The application was stopped 8 days after the application began. The groups CON and IMQ were treated with distilled water, the group C was treated with cedrol, the group CA was treated with cedryl acetate, the group CE was treated with alpha-cedrene alone at the concentration of 100 mg/kg in 200 μl, every day via oral-administration. Day 8 was the day the imiquimod application was stopped, since then the compounds were administered for 1 week once a day, during which photo-recording was performed (FIGS. 13A˜13D).
The psoriasis area severity index (Psoriasis Area Severity Index, PASI) was given from the point 1 to point 4, based on which the recovery effect on the ear thickness was evaluated.

[7] = test system: psoriasis induced mice (imiquimod); assay: Recovery effect on keratosis of the psoriasis induced mice after termination of imiquimod (PASI); type: in vivo, Balb/c mouse
Procedure: as §3
(§4) Then, the psoriasis area severity index (Psoriasis Area Severity Index, PASI) was calculated, based on which the recovery effect on keratosis was evaluated.

[8] = test system: psoriasis induced mice (imiquimod); assay: Recovery effect on skin flair of the psoriasis induced mice after termination of imiquimod (PASI); type: in vivo, Balb/c mouse; conditions: for PASI reflecting skin flair: day 8 (imiquimod application stopped), 100 mg/kg oral
Procedure: as §3, §4

[9] = test system: psoriasis induced mice (imiquimod); assay: Recovery effect on hemorrhage spots of the psoriasis induced mice; type: in vivo, Balb/c mouse
Procedure: as §3
The psoriasis induced mice orally administered with cedrol, cedryl acetate, and alpha-cedrene of Example <3-1> were observed by the naked eye, and the number of mice showing the recovery of hemorrhage spots was counted.

IL-17A expression = assay: IL-17A inhibition assay in IL-17 luciferase-(LUCPorter) stable reporter cell line; conditions: for Inhibition of IL-17A expression (%) Experiment-2 / Inhibition of IL-17A expression (%) Experiment-3 / Inhibition of IL-17A expression (%) Experiment-1: 6 hours; for expression of IL-17A (luciferase units): control group 2,582 units; for suppression of the expression of IL-17A (in words): 10, 100, or 1,000 μg/ml; for inhibition at 10 µg/mL / inhibition at 100 µg/mL / inhibition at 1000 µg/mL / IC50: Homo sapiens; for inhibition at 10 µg/mL / inhibition at 100 µg/mL / inhibition at 1000 µg/mL: read-out: Average Inhibition (%); for IC50: read-out: IC50 to inhibit the IL-17A expression by 50%
[10] = day 7, 100 mg/kg oral, IMQ alone 3
[11] = 100 mg/kg oral after termination of imiquimod
[12] = day 8 (imiquimod application stopped), 100 mg/kg oral
[13] = day 8, 100 mg/kg oral, 8 mice/group

| SMILES | mean ear thickness point (PASI) [1] [point] | keratosis mean point (PASI) [2] [point] | skin flair mean point (PASI) [3] [point] | number of mice showing skin wrinkles ([5]; day 5, 100 mg/kg oral) | number of mice showing skin wrinkles [5, 10] | PASI reflecting the ear thickness [6, 12] [point] | PASI reflecting keratosis [7, 12] [point] | PASI reflecting skin flair [8] [point] | number of mice showing hemorrhage spots [9, 13] [mice] | expression of IL-17A, % by the control (IL-17A expression; 10 μg/ml) [% by the control] | Inhibition of IL-17A expression (%) Experiment-2 (IL-17A expression; 10 μg/ml) [%] | Inhibition of IL-17A expression (%) Experiment-3 (IL-17A expression; 10 μg/ml) [%] | expression of IL-17A (luciferase units) (IL-17A expression; 10 μg/ml) | expression of IL-17A, % by the control (IL-17A expression; 100 μg/ml) [% by the control] | Inhibition of IL-17A expression (%) Experiment-2 (IL-17A expression; 100 μg/ml) [%] | Inhibition of IL-17A expression (%) Experiment-3 (IL-17A expression; 100 μg/ml) [%] | expression of IL-17A (luciferase units) (IL-17A expression; 100 μg/ml) | expression of IL-17A, % by the control (IL-17A expression; 1,000 μg/ml) [% by the control] | Inhibition of IL-17A expression (%) Experiment-2 (IL-17A expression; 1000 μg/ml) [%] | Inhibition of IL-17A expression (%) Experiment-3 (IL-17A expression; 1000 μg/ml) [%] | also measured |
| --- | --- | --- | --- | --- | --- | --- | --- | --- | --- | --- | --- | --- | --- | --- | --- | --- | --- | --- | --- | --- | --- |
| CC(=O)O[C@]1(C)CC[C@@]23C[C@@H]1C(C)(C)[C@@H]2CC[C@H]3C [cedryl acetate, Cedryl acetate] | 2.3 | 3.08 | 3.16 | one | one | 4.0±0.6 | 4.0±0.6 | 4.0±0.0 | 6 | 77 | 15 | 23 | 1,994±304 units | 64 | 27 | 36 | 1,648±138 units | 10 | 74 | 90 | ear thickness reduction effect, comparison in words ([1]; 100 mg/kg oral, 7 days): strongest reduction effect; number of mice showing skin pain ([4]; day 6, 100 mg/kg oral): one; number of mice showing skin pain ([4]; day 7, 100 mg/kg oral, IMQ alone 5): no mice; ear thickness recovery effect, comparison in words [6, 11]: strongest recovery effect; ear thickness recovered to normal (in words) ([6]; from day 15, 100 mg/kg oral after termination of imiquimod): all 8 mice were recovered to normal; PASI reflecting keratosis ([7]; day 14, 100 mg/kg oral once a day after termination of imiquimod): 1.0±0.0 point; number of mice showing hemorrhage spots ([9]; day 16, 100 mg/kg oral after termination of imiquimod): no mouse; expression of IL-17A (luciferase units) (IL-17A expression; 1,000 μg/ml): 257±6 units; suppression of the expression of IL-17A (in words) (IL-17A expression): dose-dependently; inhibition at 10 µg/mL (IL-17A expression): 19%; inhibition at 100 µg/mL (IL-17A expression): 31.5%; inhibition at 1000 µg/mL (IL-17A expression): 82%; IC50 (IL-17A expression): 608 µg/mL; IL-17A expression inhibition activity, comparison in words (IL-17A expression; order by IC50 of Table 3): strongest IL-17A expression inhibition activity |
| C[C@@H]1CC[C@H]2C(C)(C)[C@H]3C[C@@]12CC[C@@]3(C)O [cedrol, Cedrol] | 2.6 | 3.00 | 3.33 | one | 2 mice | 4.0±0.6 | 3.0±0.6 | 3.0±0.6 | 6 | 67 | 0 | 33 | 1,718±174 units | 57 | 14 | 43 | 1,460±124 units | 28 | 59 | 72 | number of mice showing skin pain ([4]; day 4, 100 mg/kg oral): one; number of mice showing skin pain ([4]; day 5, 100 mg/kg oral): no mice; PASI reflecting the ear thickness ([6]; day 16, 100 mg/kg oral once a day after termination of imiquimod): 0.7±0.6 point; keratosis recovery effect, comparison in words [7, 11]: strongest recovery effect; keratosis recovered to normal (in words) ([7]; on day 15, 100 mg/kg oral after termination of imiquimod): all 8 mice were recovered to normal; skin flair recovery effect, comparison in words [8, 11]: strongest recovery effect; skin flair disappearance (in words) ([8]; on day 16, 100 mg/kg oral after termination of imiquimod): skin flair of all mice disappeared; hemorrhage spot recovery effect, comparison in words [9, 11]: strongest recovery effect; number of mice showing hemorrhage spots ([9]; day 12, 100 mg/kg oral after termination of imiquimod): no mouse; Inhibition of IL-17A expression (%) Experiment-1 (IL-17A expression; 10 μg/ml): 24%; Inhibition of IL-17A expression (%) Experiment-1 (IL-17A expression; 100 μg/ml): 21%; Inhibition of IL-17A expression (%) Experiment-1 (IL-17A expression; 1000 μg/ml): 76%; expression of IL-17A (luciferase units) (IL-17A expression; 1,000 μg/ml): 715±45 units; suppression of the expression of IL-17A (in words) (IL-17A expression): dose-dependently; inhibition at 10 µg/mL (IL-17A expression): 19%; inhibition at 100 µg/mL (IL-17A expression): 26%; inhibition at 1000 µg/mL (IL-17A expression): 69%; IC50 (IL-17A expression): 726 µg/mL (≈ 3.26 mM) |
